Tests used:
Zymoseptoria tritici = assay: Leaf blotch of wheat (SEPTTR) disease control on wheat seedlings; type: in vivo; set-up: key to SEPTTR 1DP, HV activity at 100 ppm (% control rating) / SEPTTR 3DC, HV activity at 100 ppm (% control rating) / SEPTTR disease control, 1DP / SEPTTR disease control, 3DC / SEPTTR 1DP disease control rating, HV activity / SEPTTR 3DC disease control rating, HV activity / SEPTTR 3DC, LV activity at 125.1 g/H (% Control rating) / SEPTTR 1DP, LV activity at 125.1 g/H (% Control rating) / SEPTTR 1DP disease control rating, LV activity at 125.1 g/H / SEPTTR 3DC disease control rating, LV activity at 125.1 g/H / SEPTTR 3DC disease control rating, HV activity at 100 ppm / SEPTTR 1DP disease control rating, HV activity at 100 ppm / HV activity at 100 ppm SEPTTR 3DC (disease control rating) / HV activity at 100 ppm SEPTTR 1DP (disease control rating) / LV activity at 125.1 g/H SEPTTR 1DP (disease control rating) / LV activity at 125.1 g/H SEPTTR 3DC (disease control rating): A: > 80; B: ≤ 80; C: Not Tested; D: No Activity Observed in the Reported Assay
Puccinia triticina = assay: Wheat brown rust (PUCCRT) disease control on wheat seedlings; type: in vivo; set-up: key to PUCCRT 3DC, HV activity at 100 ppm (% control rating) / PUCCRT disease control, 3DC / PUCCRT 1DP disease control rating, HV activity / PUCCRT 3DC disease control rating, HV activity / PUCCRT 3DC, LV activity at 125.1 g/H (% Control rating) / PUCCRT 1DP, LV activity at 125.1 g/H (% Control rating) / PUCCRT 3DC disease control rating, LV activity at 125.1 g/H / PUCCRT 1DP disease control rating, LV activity at 125.1 g/H / PUCCRT 3DC disease control rating, HV activity at 100 ppm / PUCCRT 1DP disease control rating, HV activity at 100 ppm / HV activity at 100 ppm PUCCRT 3DC (disease control rating) / LV activity at 125.1 g/H PUCCRT 1DP (disease control rating) / LV activity at 125.1 g/H PUCCRT 3DC (disease control rating): A: > 80; B: ≤ 80; C: Not Tested; D: No Activity Observed in the Reported Assay
[1] = low volume application, 125.1 g/H, 1 Day Protectant
[2] = low volume application, 125.1 g/H, 3 Day Curative
[3] = low volume application, 125.1 g/H, 1 day protectant
[4] = low volume application, 125.1 g/H, 3 day curative
[5] = high volume application, 100 ppm, 1 day protectant
[6] = high volume application, 100 ppm, 3 day curative
[7] = HV application, 100 ppm, 1 Day Protectant
[8] = HV application, 100 ppm, 3 Day Curative

CC[C@H](CC1CCCC1)[C@@H](OCC1CC1)[C@H](C)OC(=O)[C@H](C)NC(=O)c1nccc(OC)c1OC(C)=O [Cmpd 508]
SEPTTR 1DP, LV activity at 125.1 g/H (% Control rating) (Zymoseptoria tritici; [1]): B (≤ 80)
SEPTTR 3DC, LV activity at 125.1 g/H (% Control rating) (Zymoseptoria tritici; [2]): B (≤ 80)
PUCCRT 1DP, LV activity at 125.1 g/H (% Control rating) (Puccinia triticina; [1]): B (≤ 80)
PUCCRT 3DC, LV activity at 125.1 g/H (% Control rating) (Puccinia triticina; [2]): B (≤ 80)

CC[C@H](OC)[C@@H](Oc1ccccc1)[C@H](C)OC(=O)[C@H](C)NC(=O)c1nccc(OC)c1O [Cmpd 403]
SEPTTR 1DP disease control rating, LV activity (Zymoseptoria tritici; Low volume application at 125.1 g/H, 1 Day Protectant, wheat leaf blotch): B (≤ 80)
SEPTTR 3DC disease control rating, LV activity (Zymoseptoria tritici; Low volume application at 125.1 g/H, 3 Day Curative, wheat leaf blotch): A (> 80)
PUCCRT 1DP disease control rating, LV activity (Puccinia triticina; Low volume application at 125.1 g/H, 1 Day Protectant, wheat brown rust): A (> 80)
PUCCRT 3DC disease control rating, LV activity (Puccinia triticina; Low volume application at 125.1 g/H, 3 Day Curative, wheat brown rust): A (> 80)

COc1ccnc(C(=O)N[C@H](C)C(=O)O[C@H](C)[C@@H](Oc2ccccc2)C(C)C)c1O [Cmpd 351]
SEPTTR 1DP disease control rating, HV activity (Zymoseptoria tritici; HV application at 100 ppm, 1 Day Protectant, wheat leaf blotch): B (≤ 80)
SEPTTR 3DC disease control rating, HV activity (Zymoseptoria tritici; HV application at 100 ppm, 3 Day Curative, wheat leaf blotch): D
PUCCRT 1DP disease control rating, HV activity (Puccinia triticina; HV application at 100 ppm, 1 Day Protectant, wheat brown rust): D
PUCCRT 3DC disease control rating, HV activity (Puccinia triticina; HV application at 100 ppm, 3 Day Curative, wheat brown rust): D

COc1ccnc(C(=O)N[C@@H](C)C(=O)O[C@@H](C)[C@@H](CC(C)C)Oc2ccc(Cl)cc2)c1O [Cmpd 1047]
HV activity at 100 ppm SEPTTR 1DP (disease control rating) (Zymoseptoria tritici; HV application, 100 ppm, 1 Day Protectant, wheat leaf blotch): B (≤ 80)
HV activity at 100 ppm SEPTTR 3DC (disease control rating) (Zymoseptoria tritici; HV application, 100 ppm, 3 Day Curative, wheat leaf blotch): A (> 80)
HV activity at 100 ppm PUCCRT 1DP (disease control rating) (Puccinia triticina; HV application, 100 ppm, 1 Day Protectant, wheat brown rust): A (> 80)
HV activity at 100 ppm PUCCRT 3DC (disease control rating) (Puccinia triticina; HV application, 100 ppm, 3 Day Curative, wheat brown rust): A (> 80)

CCC(CC)[C@@H](Oc1cccc(Cl)c1)[C@H](C)OC(=O)[C@@H](NC(=O)c1nccc(OC)c1OC(C)=O)C(C)C [Cmpd 658]
SEPTTR 1DP disease control rating, LV activity at 125.1 g/H (Zymoseptoria tritici; [3]): D
SEPTTR 3DC disease control rating, LV activity at 125.1 g/H (Zymoseptoria tritici; [4]): B (≤ 80)
PUCCRT 1DP disease control rating, LV activity at 125.1 g/H (Puccinia triticina; [3]): A (> 80)
PUCCRT 3DC disease control rating, LV activity at 125.1 g/H (Puccinia triticina; [4]): B (≤ 80)

C=CC[C@@H](Oc1cccc(Cl)c1)[C@H](C)OC(=O)[C@H](C)NC(=O)c1nccc(OC)c1O [Cmpd 1021]
SEPTTR 1DP disease control rating, HV activity at 100 ppm (Zymoseptoria tritici; [5]): A (> 80)
SEPTTR 3DC disease control rating, HV activity at 100 ppm (Zymoseptoria tritici; [6]): A (> 80)
PUCCRT 1DP disease control rating, HV activity at 100 ppm (Puccinia triticina; [5]): A (> 80)
PUCCRT 3DC disease control rating, HV activity at 100 ppm (Puccinia triticina; [6]): A (> 80)

CCC(CC)[C@@H](Oc1cccc(-c2ccccc2)c1)[C@H](C)OC(=O)[C@H](C)NC(=O)c1nccc(OC)c1OC(C)=O [Cmpd 606]
SEPTTR 1DP, LV activity at 125.1 g/H (% Control rating) (Zymoseptoria tritici; [1]): A (> 80)
SEPTTR 3DC, LV activity at 125.1 g/H (% Control rating) (Zymoseptoria tritici; [2]): B (≤ 80)
PUCCRT 1DP, LV activity at 125.1 g/H (% Control rating) (Puccinia triticina; [1]): A (> 80)
PUCCRT 3DC, LV activity at 125.1 g/H (% Control rating) (Puccinia triticina; [2]): B (≤ 80)

COc1ccnc(C(=O)N[C@@H](C)C(=O)O[C@@H](C)[C@@H](Oc2cccc(C(F)(F)F)c2)C(C)C)c1OCOC(C)=O [Cmpd 853]
SEPTTR 1DP disease control rating, LV activity at 125.1 g/H (Zymoseptoria tritici; [3]): B (≤ 80)
SEPTTR 3DC disease control rating, LV activity at 125.1 g/H (Zymoseptoria tritici; [4]): A (> 80)
PUCCRT 1DP disease control rating, LV activity at 125.1 g/H (Puccinia triticina; [3]): A (> 80)
PUCCRT 3DC disease control rating, LV activity at 125.1 g/H (Puccinia triticina; [4]): A (> 80)

COc1ccnc(C(=O)N[C@@H](C)C(=O)O[C@@H](C)[C@H](Oc2ccc(Cl)cc2)C2CCCC2)c1OC(C)=O [Cmpd 921]
SEPTTR 1DP disease control rating, LV activity at 125.1 g/H (Zymoseptoria tritici; [3]): A (> 80)
SEPTTR 3DC disease control rating, LV activity at 125.1 g/H (Zymoseptoria tritici; [4]): B (≤ 80)
PUCCRT 1DP disease control rating, LV activity at 125.1 g/H (Puccinia triticina; [3]): A (> 80)
PUCCRT 3DC disease control rating, LV activity at 125.1 g/H (Puccinia triticina; [4]): A (> 80)

COc1ccnc(C(=O)N[C@@H](C)C(=O)O[C@@H](C)[C@H](OCC2CC2)C2CC2)c1OC(C)=O [Cmpd 1066]
LV activity at 125.1 g/H SEPTTR 1DP (disease control rating) (Zymoseptoria tritici; low volume application, 125.1 g/H, 1 Day Protectant, wheat leaf blotch): B (≤ 80)
LV activity at 125.1 g/H SEPTTR 3DC (disease control rating) (Zymoseptoria tritici; low volume application, 125.1 g/H, 3 Day Curative, wheat leaf blotch): B (≤ 80)
LV activity at 125.1 g/H PUCCRT 1DP (disease control rating) (Puccinia triticina; low volume application, 125.1 g/H, 1 Day Protectant, wheat brown rust): B (≤ 80)
LV activity at 125.1 g/H PUCCRT 3DC (disease control rating) (Puccinia triticina; low volume application, 125.1 g/H, 3 Day Curative, wheat brown rust): A (> 80)

CCC(CC)[C@@H](Oc1cccc(F)c1)[C@H](C)OC(=O)[C@@H](NC(=O)c1nccc(OC)c1OCOC(C)=O)C(C)C [Cmpd 645]
SEPTTR 1DP, HV activity at 100 ppm (% control rating) (Zymoseptoria tritici; [7]): A (> 80)
SEPTTR 3DC, HV activity at 100 ppm (% control rating) (Zymoseptoria tritici; [8]): A (> 80)
SEPTTR 1DP, LV activity at 125.1 g/H (% Control rating) (Zymoseptoria tritici; [1]): D
SEPTTR 3DC, LV activity at 125.1 g/H (% Control rating) (Zymoseptoria tritici; [2]): A (> 80)
PUCCRT 1DP, HV activity at 100 ppm (% control rating) (Puccinia triticina; [7]): A (> 80)
PUCCRT 3DC, HV activity at 100 ppm (% control rating) (Puccinia triticina; [8]): A (> 80)
PUCCRT 1DP, LV activity at 125.1 g/H (% Control rating) (Puccinia triticina; [1]): A (> 80)
PUCCRT 3DC, LV activity at 125.1 g/H (% Control rating) (Puccinia triticina; [2]): A (> 80)

Reference: patent US20180000085A1, “USE OF PICOLINAMIDE COMPOUNDS WITH FUNGICIDAL ACTIVITY” (DOW AGROSCIENCES LLC, priority 2014, published 2018)
